Test results reported in US9029110B2, “Method for producing functional microbially fermented tea extract containing polyphenol derivative” (Kabushiki Kaisha Riverson, priority 2009, dated 2015).

Experiments:
[1] = Test of the functions of decreasing visceral fat and increasing adiponectin (method not described); conditions: as a result of the test, no data shown
PTP1B = PTP1B expression inhibitory effect, Western blotting; type: cell-based
Experimental: (§1) 3T3-L1 adipocytes can be allowed to grow and maintained in a 5% CO2 environment in high-glucose DMEM containing 50 U/ml penicillin, 50 μg/ml streptomycin, and 10% FCS. The 3T3-L1 cells were subcultured in a dish of 3.5 cm in diameter until confluent and then sufficiently differentiated into adipocytes by culture for another 2 days in the presence of insulin (10 μg/ml), dexamethasone (0.25 μM), and IBMX (3-isobutyl-1-methylxanthine) (0.5 mM). Teadenol A (10 μM) or DMSO (vehicle control) was added to the sufficiently differentiated 3T3-L1 adipocytes, and each culture supernatant was collected after 8, 24, 32, and 48 hours. The amount of adiponectin secreted was determined by Western blotting method.
Teadenol A (10 μM) or DMSO (vehicle control) was added to the sufficiently differentiated 3T3-L1 adipocytes. After culture for 8, 24, 32, and 48 hours, the cells were collected, and the amount of PTP1B […] and the amount of α-tubulin were determined by Western blotting method.

3T3-L1 adipocytes = experiment: Adiponectin secretion promoting effect, Western blotting of culture supernatant; type: cell-based; conditions: for amount of adiponectin secreted (Mean, DMSO control = 100.00): differentiated 3T3-L1 adipocytes, 3 runs
Experimental: as §1

[2] = stated as 'can be confirmed', no data shown

Structure (SMILES): C=C1C=C(C(=O)O)O[C@@H]2Cc3c(O)cc(O)cc3O[C@H]12 [Teadenol A, teadenol A]
- function on adiponectin [1]: increasing adiponectin
- function on visceral fat [1]: decreasing visceral fat
- PTP1B expression inhibitory activity (PTP1B; statistically significant difference in the samples after 32 hours, 10 μM, 3T3-L1 adipocytes): effective
- amount of adiponectin secreted (Mean, DMSO control = 100.00) (3T3-L1 adipocytes; 10 μM, 8 h): 166.00
- amount of adiponectin secreted (Mean, DMSO control = 100.00) (3T3-L1 adipocytes; 10 μM, 24 h): 214.67
- amount of adiponectin secreted (Mean, DMSO control = 100.00) (3T3-L1 adipocytes; 10 μM, 32 h): 153.33
- amount of adiponectin secreted (Mean, DMSO control = 100.00) (3T3-L1 adipocytes; 10 μM, 48 h): 147.67
- adiponectin secretion promoting activity (3T3-L1 adipocytes; statistically significant difference in the samples after 24 and 48 hours, 10 μM): effective

Structure (SMILES): C=C1C=C(C(=O)O)O[C@@H]2Cc3c(O)cc(O)cc3O[C@@H]12 [Teadenol B, teadenol B]
- PTP1B expression inhibitory effect (PTP1B; [2]): effective
- adiponectin secretion promoting effect (3T3-L1 adipocytes; [2]): effective
